The target in data set [1] is MCL-1 (Homo sapiens, UniProt Q07820). Nature of the data set: Protein-protein interaction assay MCL-1/Noxa BH3 peptide (MCL-1 assay), TR-FRET. In kind it is binding. The settings on record: MBP-MCL-1 / Noxa BH3-derived peptide, median. In outline: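 IC50 came from a 4-parameter fit of the normalized 665/620 nm TR-FRET ratio (anti-MBP Eu-cryptate/streptavidin-XL665). Compounds (0.1 nM–20 μM, duplicates) were preincubated 10 min at 22 °C with 1 nM MBP-MCL-1 in pH 7 Tris/NaCl/KF buffer, then read after 1 h at 22 °C plus overnight at 4 °C.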
Sequence of MCL-1 (Q07820 whole entry): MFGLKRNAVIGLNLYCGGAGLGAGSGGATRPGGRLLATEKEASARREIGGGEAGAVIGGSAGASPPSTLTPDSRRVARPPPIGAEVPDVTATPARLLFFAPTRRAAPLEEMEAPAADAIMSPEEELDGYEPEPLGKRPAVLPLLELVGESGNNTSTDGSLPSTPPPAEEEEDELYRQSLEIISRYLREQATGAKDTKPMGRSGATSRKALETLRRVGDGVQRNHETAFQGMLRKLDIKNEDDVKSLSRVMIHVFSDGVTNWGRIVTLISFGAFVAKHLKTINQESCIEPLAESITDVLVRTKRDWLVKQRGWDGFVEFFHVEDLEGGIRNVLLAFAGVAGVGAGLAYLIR
For orientation: TR-FRET usually uses a lanthanide donor and a delayed reading to cut background.

The subject of data set [2] is SUDHL5. Nature of the data set: Induction of caspase-3/7 activity (Caspase-Glo 3/7), SUDHL5. The format is cell-based. The settings on record: caspase-3/7 induction, SUDHL5 cells, 3 h treatment, median. Put shortly:
(§1)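 DLBCL lines SUDHL5 and SUDHL10 treated with compounds for 3 h at 37 °C; caspase-3/7 activity read by Caspase-Glo 3/7 luminescence. Medium-only background subtracted; EC50 fitted with bottom fixed at 1 and top fixed at the reference compound's maximal induction.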

In data set [3] the test system is SUDHL10. Nature of the data set: Induction of caspase-3/7 activity (Caspase-Glo 3/7), SUDHL10. In kind it is cell-based. The note with it: Homo sapiens, SU-DHL10, 3 h, caspase-3/7 induction, SUDHL10 cells, 3 h treatment; median. Put shortly:
as §1

The subject of data set [4] is SUDHL5. Nature of the data set: Anti-proliferative effect (CellTiter-Glo, 72 h), SUDHL5. In kind it is cell-based. The settings on record: SUDHL5 cells, antiproliferation, median, read-out: Antiproli SUDHL5 [M] (median). Put shortly: (§2)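 Cells plated and incubated with compounds for 72 h at 37 °C, with a parallel day 0 reference plate for time-zero signal. Viability read by CellTiter-Glo luminescence after 10 min, measured identically on the day 0 and 72 h plates.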
In general terms: Cellular ATP, detected with luciferase, serves as a proxy for viable cell number.

The subject of data set [5] is SUDHL10. Nature of the data set: Anti-proliferative effect (CellTiter-Glo, 72 h), SUDHL10. In kind it is cell-based. The settings on record: SUDHL10 cells, antiproliferation, median, read-out: Antiproli SUDHL10 [M] (median). As for the experimental part: Assessment of the Anti-Proliferative Effect of Compounds in Different Cell Lines
The impact of compounds on the proliferation of different cell lines was assessed using the CellTiter-Glo® Luminescent Cell Viability reagent from Promega (G7573). Of note, SUDHL10 and SUDHL5 (DLBCL), NCI-H929 (Multiple Myeloma), A2780 (ovarian carcinoma) as well as MV-4-11(AML) cells are sensitive to MCL-1 inhibition.
In parallel, cells were plated in a reference (day 0) plate for time zero determination.
Rim wells were excluded. The cells were incubated for 72 h hours in a humidified incubator at 37° C. The day 0 plate was measured by adding 30 μl/well of CTG solution (CellTiter-Glo® Luminescent Cell Viability reagent, Promega G7573) to time zero wells in the reference plate followed by a 10 minutes incubation and luminescence reading at 0.1 ms, using the PHERAstar FS microplate reader (BMG Labtech).
After 72 h incubation, the treated plates were measured in the same way as the day 0 plate mentioned above.

Data set [6] has as its system A2780. Nature of the data set: Anti-proliferative effect (CellTiter-Glo, 72 h), A2780. In kind it is cell-based. The settings on record: A2780 cells, median, read-out: IC50 antiproliferation assay A2780 [M] (median). Put shortly: as §2
Data set [7] deals with SUDHL5. Nature of the data set: Induction of cytotoxicity (CellTiter-Glo, 5 h), SUDHL5.
Data set [8] deals with SUDHL10. Nature of the data set: Induction of cytotoxicity (CellTiter-Glo, 5 h), SUDHL10. The note with it: Homo sapiens, SU-DHL10, 5 h.
Where [9] appears, read: Homo sapiens, SU-DHL-5, 72 h, 72 h incubation.
Setting [10] is: Homo sapiens, SU-DHL10, 72 h, 72 h incubation.
Where [11] appears, read: Homo sapiens, SU-DHL-5, 5 h, read-out: Cytotox SUDHL5 [M] (median), SUDHL5 cells, cytotoxicity induction, CellTiter-Glo, 5 h incubation, median.
Where [12] appears, read: read-out: Cytotox SUDHL10 [M] (median), SUDHL10 cells, cytotoxicity induction, CellTiter-Glo, 5 h incubation, median.

Where a name gives a salt, the structure may show the parent alone. Read-outs that look alike come from different tables or passages of the source.

In patent publication US10981932B2, “Macrocyclic indole derivatives” (Bayer Aktiengesellschaft, priority 2016, dated 2021) one finds IC50 and EC50 data, which are given here for ten compounds.

As usually defined, the EC50 is the concentration needed to bring the measured effect to its halfway point. Low values mean greater potency, high ones weaker potency. `Cc1ccc2c(CCCOc3cccc4ccccc34)c(C(=O)O)n3c2c1-c1c(C)nn(C)c1COCC=CC3` (racemic) [Example 038, (rac)-(E/Z)-1,3,4-trimethyl-7-[3-(1-naphthyloxy)propyl]-1,10,13,15-tetrahydropyrazolo[4′,3′:9,10][1,6]oxazacycloundecino[8,7,6-hi]indole-8-carboxylic Acid]: the IC50 in data set [1] was 0.00965 µM; in data set [4] (setting [9]), 1.64e-05 M; in data set [5] (setting [10]) it was 1.46e-05 M; in data set [6] (Homo sapiens, A2780, 72 h), > 3.3e-05 M; in data set [7] (setting [11]), 1.46e-05 M; in data set [8] (setting [12]), > 3.3e-05 M. For the same compound, the EC50 in data set [2] (Homo sapiens, SU-DHL-5, 3 h) was 13.9 µM; in data set [3], > 33 µM.
In the case of `Cc1nn(C)c2c1-c1cccc3c(CCCOc4cccc5cc(Cl)ccc45)c(C(=O)O)n(c13)CCCCOC2` (racemic) [Example 040, (rac)-7-{3-[(6-chloronaphthalen-1-yl)oxy]propyl}-1,3-dimethyl-1,10,11,12,13,15-hexahydropyrazolo[4′,3′:9,10][1,6]oxazacycloundecino[8,7,6-hi]indole-8-carboxylic Acid], the IC50 in data set [1] was 0.0144 µM; in data set [4] (setting [9]), 1.33e-05 M; in data set [5] (setting [10]), 3.25e-06 M; in data set [6] (Homo sapiens, A2780, 72 h) it was 1.9e-05 M; in data set [7] (setting [11]), 1.66e-05 M; in data set [8] (setting [12]), > 3.3e-05 M. Moreover, the EC50 in data set [2] (Homo sapiens, SU-DHL-5, 3 h) was 21 µM; in data set [3], > 33 µM.
On to `Cc1nn(C)c2c1-c1cccc3c(CCCOc4cccc5ccccc45)c(C(=O)O)n(c13)CCCOC2` (racemic) [Example 043, (rac)-9,11-dimethyl-1-[3-(naphthalen-1-yloxy)propyl]-5,6,8,9-tetrahydro-4H-pyrazolo[4′,3′:8,9][(1,5]oxazecino[7,6,5-hi]indole-2-carboxylic Acid], for which the IC50 in data set [1] is 0.0127 µM; in data set [4] (setting [9]) it was 1.05e-05 M; in data set [5] (setting [10]), 4.93e-06 M; in data set [6], 2.6e-05 M; in data set [6] (Homo sapiens, A2780, 72 h) it was > 3.3e-05 M; in data set [7] (setting [11]) it was 1.79e-05 M. For the same compound, the IC50 in data set [8] (setting [12]) is > 3.3e-05 M. The EC50 in data set [2] (Homo sapiens, SU-DHL-5, 3 h) is 18.7 µM; in data set [3], > 33 µM.
For `Cc1nn(C)c2c1-c1cccc3c(CCCOc4cccc5cc(F)ccc45)c(C(=O)O)n(c13)CCCOC2` (racemic) [Example 046, (rac)-1-{3-[(6-fluoronaphthalen-1-yl)oxy]propyl}-9,11-dimethyl-5,6,8,9-tetrahydro-4H-pyrazolo[4′,3′:8,9][1,5]oxazecino[7,6,5-hi]indole-2-carboxylic Acid], the IC50 turned out to be 0.0108 µM in data set [1]; 6.27e-06 M in data set [4] (setting [9]); 3.94e-06 M in data set [5] (setting [10]); 2.65e-05 M in data set [6] (Homo sapiens, A2780, 72 h); 6.09e-06 M in data set [7] (setting [11]); 2.33e-05 M in data set [8] (setting [12]). Besides, the EC50 turned out to be 5.7 µM in data set [2] (Homo sapiens, SU-DHL-5, 3 h) and 17 µM in data set [3].
Regarding `Cc1cc2c(OCCCc3c(C(=O)O)n4c5c(cccc35)-c3c(C)nn(C)c3COCCCC4)cccc2cc1F` (racemic) [Example 049, (rac)-7-{3-[(6-fluoro-7-methylnaphthalen-1-yl)oxy]propyl}-1,3-dimethyl-1,10,11,12,13,15-hexahydropyrazolo[4′,3′:9,10][1,6]oxazacycloundecino[8,7,6-hi]indole-8-carboxylic Acid], the IC50 in data set [1] came out at 0.00318 µM; in data set [4] (setting [9]), 1.1e-05 M; in data set [5] (setting [10]) it was 6.98e-06 M; in data set [6] (Homo sapiens, A2780, 72 h) it was 1.57e-05 M; in data set [7] (setting [11]) it was 1.13e-05 M; in data set [8] (setting [12]), 3.14e-05 M. Besides, the EC50 in data set [2] (Homo sapiens, SU-DHL-5, 3 h) is 14.2 µM; in data set [3] it was > 33 µM.
As for `Cn1nc2c(c1CN1CCOCC1)-c1cccc3c(CCCOc4cccc5ccccc45)c(C(=O)O)n(c13)CCOCCOC2` (racemic) [Example 087], the IC50 in data set [1] was 0.097 µM; in data set [4] (setting [9]), > 3.3e-05 M; in data set [5] (setting [10]) it was 1.41e-05 M; in data set [6] (Homo sapiens, A2780, 72 h), > 3.3e-05 M; in data set [7] (setting [11]) it was > 3.3e-05 M; in data set [8] (setting [12]) it was > 3.3e-05 M. Besides, the EC50 in data set [2] (Homo sapiens, SU-DHL-5, 3 h) is > 33 µM; in data set [3], > 33 µM.
In the case of `CCn1nc(C2CC2)c2c1COCCCCn1c(C(=O)O)c(CCCOc3cccc4ccccc34)c3cccc-2c31` (racemic) [Example 088, (rac)-3-Cyclopropyl-1-ethyl-7-[3-(naphthalen-1-yloxy)propyl]-1,10,11,12,13,15-hexahydropyrazolo[4′,3′:9,10][1,6]oxazacycloundecino[8,7,6-hi]indole-8-carboxylic Acid], the IC50 in data set [1] is 0.00694 µM; in data set [4] (setting [9]), 1.76e-05 M; in data set [5] (setting [10]), 2.67e-05 M; in data set [6] (Homo sapiens, A2780, 72 h), 2.35e-05 M; in data set [7] (setting [11]) it was 1.1e-05 M; in data set [8] (setting [12]), > 3.3e-05 M. Also, the EC50 was 13.5 µM in data set [2] (Homo sapiens, SU-DHL-5, 3 h) and > 33 µM in data set [3].
`Cc1c2c(nn1C1CC1)COCCCCn1c(C(=O)O)c(CCCOc3cccc4ccccc34)c3cccc-2c31` (racemic) [Example 092, (rac)-2-cyclopropyl-3-methy-7-[3-(naphthalen-1-yloxy)propyl]-2,10,11,12,13,15-hexahydropyrazolo[4′,3′:9,10][1,6]oxazacycloundecino[8,7,6-hi]indole-8-carboxylic Acid]: the IC50 worked out at 0.00708 µM in data set [1]; 8.25e-06 M in data set [4] (setting [9]); 2.06e-06 M in data set [5] (setting [10]); 2.48e-05 M in data set [6] (Homo sapiens, A2780, 72 h); 6.75e-06 M in data set [7] (setting [11]); 2.23e-05 M in data set [8] (setting [12]). Besides, the EC50 in data set [2] (Homo sapiens, SU-DHL-5, 3 h) was 6.16 µM; in data set [3], 20.2 µM.
As to `CCc1c2c(nn1CCN1CCOCC1)COCCCCn1c(C(=O)O)c(CCCOc3cccc4ccccc34)c3cccc-2c31` (racemic) [Example 201, (rac)-3-ethyl-2-[2-(morpholin-4-yl)ethyl]-7-[3-(naphthalen-1-yloxy)propyl]-2,10,11,12,13,15-hexahydropyrazolo[4′,3′:9,10][1,6]oxazacycloundecino[8,7,6-hi]indole-8-carboxylic Acid], the IC50 stood at 0.00427 µM in data set [1]; 4.3e-06 M in data set [4] (setting [9]); 7.54e-06 M in data set [5] (setting [10]); 2.57e-06 M in data set [7] (setting [11]); 7.98e-06 M in data set [8] (setting [12]). In addition, the concentration for a half-maximal effect (EC50) is 2.53 µM in data set [2] (Homo sapiens, SU-DHL-5, 3 h) and 8.57 µM in data set [3].
Consider `COc1ccc(OCc2nn(C)c3c2-c2cccc4c(CCCOc5cccc6ccccc56)c(C(=O)O)n(c24)CCCCOC3)cc1` (single isomer, unassigned; enantiomer 1) [Example 320, 3-[(4-methoxyphenoxy)methyl]-1-methyl-7-[3-(naphthalen-1-yloxy)propyl]-1,10,11,12,13,15-hexahydropyrazolo[4′,3′:9,10][1,6]oxazacycloundecino[8,7,6-hi]indole-8-carboxylic Acid-N-ethylethanamine Salt (Enantiomer 1)], for which the IC50 in data set [1] was determined as 0.0226 µM; in data set [4] (72 h), 5.43e-06 M; in data set [5] (72 h) it was 9.36e-06 M; in data set [6] (Homo sapiens, A2780, 72 h), 1.41e-05 M; in data set [7] (read-out: Cytotox SUDHL5 [M] (median), SUDHL5 cells, cytotoxicity induction, CellTiter-Glo, 5 h, median), 1.1e-05 M; in data set [8] (read-out: Cytotox SUDHL10 [M] (median), SUDHL10 cells, cytotoxicity induction, CellTiter-Glo, 5 h, median), 2.29e-05 M. In data set [2], this compound gave a half-maximal effective concentration (EC50) of 13.8 µM.
